Target: T1, human orexin type 2 receptor (Homo sapiens, UniProt O43614)
T1 construct: expressed in transfected cells
T1 sequence (O43614 1-444): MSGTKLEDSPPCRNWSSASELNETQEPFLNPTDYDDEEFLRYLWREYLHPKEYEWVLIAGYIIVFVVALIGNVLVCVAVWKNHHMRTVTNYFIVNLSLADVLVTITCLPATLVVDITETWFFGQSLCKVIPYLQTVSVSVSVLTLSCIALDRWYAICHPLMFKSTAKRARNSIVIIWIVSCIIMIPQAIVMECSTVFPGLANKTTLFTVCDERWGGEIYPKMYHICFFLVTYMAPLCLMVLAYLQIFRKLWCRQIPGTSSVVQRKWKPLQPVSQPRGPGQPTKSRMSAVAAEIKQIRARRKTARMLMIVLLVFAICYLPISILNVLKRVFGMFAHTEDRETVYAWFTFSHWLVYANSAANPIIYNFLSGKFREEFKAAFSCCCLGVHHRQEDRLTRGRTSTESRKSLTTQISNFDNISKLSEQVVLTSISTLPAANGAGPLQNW
Experiment: Measurement of orexin type 2 receptor agonist activity (calcium indicator fluorescence, CHO cells forcibly expressing human OX2 receptor)
Type: cell-based
Settings: compound at 3 μM; 0% = DMSO, 100% = orexin A (human) 10 nM
Method in brief: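 CHO-dhfr cells stably expressing human OX2R, loaded with Fluo-4 AM (30 min 37 °C, then 30 min RT), then given test compound. Calcium fluorescence read by FDSS over ~2 min. Activity (%) scaled from DMSO (0%) to 10 nM final orexin A (100%).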

First: CN(C)S(=O)(=O)N[C@@H]1[C@H](Cc2cccc(-c3cccc(F)c3F)c2F)N(C(=O)C2(O)CCC2)CC1(F)F [Example 438, N′-{(2S,3R)-4,4-difluroo-1-(1-hydroxycyclobutane-1-carbonyl)-2-[(2,2′,3′-trifluoro[1,1′-biphenyl]-3-yl)methyl]pyrrolidin-3-yl}-N,N-dimethylsulfuric diamide]
Second: CCS(=O)(=O)N[C@@H]1[C@H](Cc2cccc(-c3ccccc3)c2F)N(C(=O)C2(O)CCC2)CC1(F)F [Example 23, N-[(2S,3R)-4,4-difluoro-2-[(2-fluoro[1,1′-biphenyl]-3-yl)methyl]-1-(1-hydroxycyclobutane-1-carbonyl)pyrrolidin-3-yl]ethanesulfonamide]
The “OX2R agonist activity (3 μM, %)” value of the first is lower: 95% for the first, 100% for the second.

Compared with `CS(=O)(=O)N[C@@H]1[C@H](Cc2cccc(-c3cc(F)cc(F)c3)c2F)N(C(=O)[C@@H]2CCO2)CC1(F)F` [Example 92, N-{(2S,3R)-4,4-difluoro-1-((2S)-oxetane-2-carbonyl)-2-[(2,3′,5′-trifluoro[1,1′-biphenyl]-3-yl)methyl]pyrrolidin-3-yl}methanesulfonamide], `CS(=O)(=O)N[C@@H]1[C@H](Cc2cccc(-c3cc(F)cc(Cl)c3)c2F)N(C(=O)C2CCO2)CC1(F)F` (stereo partly drawn) [Example 265, N-[(2S,3R)-2-[(3′-chloro-2,5′-difluoro[1,1′-biphenyl]-3-yl)methyl]-4,4-difluoro-1-(oxetane-2-carbonyl)pyrrolidin-3-yl]methanesulfonamide] is lower in “OX2R agonist activity (3 μM, %)” value: 99% for the first, 96% for the second.

Compared with `CCS(=O)(=O)N[C@H]1[C@@H](F)CN(C(=O)C2CCO2)[C@H]1Cc1cccc(-c2cccc(Cl)c2)c1F` (stereo partly drawn) [Example 368, N-[(2S,3R,4S)-2-[(3′-chloro-2-fluoro[1,1′-biphenyl]-3-yl)methyl]-4-fluoro-1-(oxetane-2-carbonyl)pyrrolidin-3-yl]ethanesulfonamide], `CCS(=O)(=O)N[C@H]1[C@@H](F)CN(C(=O)C2CC2)[C@H]1Cc1cccc(-c2cc(C)cc(F)c2)c1F` [Example 515, N-{(2S,3R,4S)-1-(cyclopropanecarbonyl)-2-[(2,3′-difluoro-5′-methyl[1,1′-biphenyl]-3-yl)methyl]-4-fluoropyrrolidin-3-yl}ethanesulfonamide] is higher in “OX2R agonist activity (3 μM, %)” value: 95% for the first, 98% for the second.

Compared with `CCS(=O)(=O)N[C@@H]1[C@H](Cc2cccc(-c3cccc(F)c3)c2F)N(C(=O)[C@H]2C[C@@H](F)C2)CC1(F)F` [Example 226, N-[(2S,3R)-2-[(2,3′-difluoro[1,1′-biphenyl]-3-yl)methyl]-4,4-difluoro-1-((1s,3R)-3-fluorocyclobutane-1-carbonyl)pyrrolidin-3-yl]ethanesulfonamide], `CCS(=O)(=O)N[C@@H]1[C@H](Cc2cccc(-c3cccc(C(F)F)c3)c2F)N(C(=O)C2CC(F)C2)CC1(F)F` (stereo partly drawn) [Example 505, N-[(2S,3R)-2-{[3′-(difluoromethyl)-2-fluoro[1,1′-biphenyl]-3-yl]methyl}-4,4-difluoro-1-(3-fluorocyclobutane-1-carbonyl)pyrrolidin-3-yl]ethanesulfonamide] is lower in “OX2R agonist activity (3 μM, %)” value: 100% for the first, 88% for the second.

Going from `CCS(=O)(=O)N[C@@H]1[C@H](Cc2cccc(-c3cccc(C)c3)c2F)N(C(=O)C(C)(C)O)CC1(F)F` [Example 465, N-[(2S,3R)-4,4-difluoro-2-[(2-fluoro-3′-methyl[1,1′-biphenyl]-3-yl)methyl]-1-(2-hydroxy-2-methylpropanoyl)pyrrolidin-3-yl]ethanesulfonamide] to `CC(C)(O)C(=O)N1CC(F)(F)[C@H](NS(C)(=O)=O)[C@@H]1Cc1cccc(-c2cccc(F)c2)c1F` [Example 7, N-[(2S,3R)-2-[(2,3′-difluoro[1,1′-biphenyl]-3-yl)methyl]-4,4-difluoro-1-(2-hydroxy-2-methylpropanoyl)pyrrolidin-3-yl]methanesulfonamide], the “OX2R agonist activity (3 μM, %)” value falls from 106% to 101%.

Compared with `CCS(=O)(=O)N[C@H]1[C@@H](F)CN(C(=O)C(C)C)[C@H]1Cc1cccc(-c2cc(F)cc(F)c2)c1F` [Example 296, N-{(2S,3R,4S)-4-fluoro-1-(2-methylpropanoyl)-2-[(2,3′,5′-trifluoro[1,1′-biphenyl]-3-yl)methyl]pyrrolidin-3-yl}ethanesulfonamide], `O=C(C1CC1)N1C[C@H](F)[C@H](NS(=O)(=O)C2CC2)[C@@H]1Cc1cccc(-c2cc(F)cc(F)c2)c1F` [Example 373, N-{(2S,3R,4S)-1-(cyclopropanecarbonyl)-4-fluoro-2-[(2,3′,5′-trifluoro[1,1′-biphenyl]-3-yl)methyl]pyrrolidin-3-yl}cyclopropanesulfonamide] is lower in “OX2R agonist activity (3 μM, %)” value: 96% for the first, 88% for the second.

Going from `CN(C)C(=O)N1C[C@H](F)[C@H](NS(=O)(=O)N(C)C)[C@@H]1Cc1cccc(-c2cccc(F)c2)c1F` [Example 344, (2S,3R,4S)-2-[(2,3′-difluoro[1,1′-biphenyl]-3-yl)methyl]-3-[(dimethylsulfamoyl)amino]-4-fluoro-N,N-dimethylpyrrolidine-1-carboxamide] to `CCS(=O)(=O)N[C@H]1[C@@H](F)CN(C(=O)N(C)C)[C@H]1Cc1cccc(-c2cccc(F)c2F)c1F` [Example 330, (2S,3R,4S)-3-[(ethanesulfonyl)amino]-4-fluoro-N,N-dimethyl-2-[(2,2′,3′-trifluoro[1,1′-biphenyl]-3-yl)methyl]pyrrolidine-1-carboxmaide], the “OX2R agonist activity (3 μM, %)” value falls from 102% to 98%.

First: Cc1cccc(-c2cccc(C[C@H]3[C@@H](NS(=O)(=O)C4CC4)[C@@H](F)CN3C(=O)C3CCO3)c2F)c1F (stereo partly drawn) [Example 487, N-[(2S,3R,4S)-2-[(2,2′-difluoro-3′-methyl[1,1′-biphenyl]-3-yl)methyl]-4-fluoro-1-(oxetane-2-carbonyl)pyrroldiin-3-yl]cyclopropanesulfonamide]
Second: CC(C)(O)C(=O)N1C[C@H](F)[C@H](NS(=O)(=O)C2CC2)[C@@H]1Cc1cccc(-c2cccc(F)c2F)c1F [Example 371, N-{(2S,3R,4S)-4-fluoro-1-(2-hydroxy-2-methylpropanoyl)-2-[(2,2′,3′-trifluoro[1,1′-biphenyl]-3-yl)methyl]pyrrolidin-3-yl}cyclopropanesulfonamide]
The “OX2R agonist activity (3 μM, %)” value of the first is higher: 95% for the first, 94% for the second.

First: Cc1cccc(-c2cccc(C[C@H]3[C@@H](NS(=O)(=O)C4CC4)[C@@H](F)CN3C(=O)C3CCO3)c2F)c1F (stereo partly drawn) [Example 490, N-[(2S,3R,4S)-2-[(2,2′-difluoro-3′-methyl[1,1′-biphenyl]-3-yl)methyl]-4-fluoro-1-(oxetane-2-carobnyl)pyrrolidin-3-yl]cyclopropanesulfonamide]
Second: Cc1cc(F)cc(-c2cccc(C[C@H]3[C@@H](NS(=O)(=O)C4CC4)C(F)(F)CN3C(=O)[C@H]3CCO3)c2F)c1 [Example 533, N-{(2S,3R)-2-[(2,3′-difluoro-5′-methyl[1,1′-biphenyl]-3-yl)methyl]-4,4-difluoro-1-[(2R)-oxetane-2-carbonyl]pyrrolidin-3-yl}cyclopropanesulfonamide]
The “OX2R agonist activity (3 μM, %)” value of the first is lower: 93% for the first, 101% for the second.

Compared with `CS(=O)(=O)N[C@@H]1[C@H](Cc2cccc(-c3cccc(F)c3)c2F)N(C(=O)N2CCC2)CC1(F)F` [Example 11, N-{(2S,3R)-1-(azetidine-1-carbonyl)-2-[(2,3′-difluoro[1,1′-biphenyl]-3-yl)methyl]-4,4-difluoropyrrolidin-3-yl}methanesulfonamide], `CCS(=O)(=O)N[C@@H]1[C@H](Cc2cccc(-c3cccc(C)c3)c2F)N(C(=O)N2CCC2)CC1(F)F` [Example 285, N-{(2S,3R)-1-(azetidine-1-carbonyl)-4,4-difluoro-2-[(2-fluoro-3′-methyl[1,1′-biphenyl]-3-yl)methyl]pyrrolidin-3-yl}ethanesulfonamdie] is higher in “OX2R agonist activity (3 μM, %)” value: 85% for the first, 98% for the second.

Going from `CC(C)C(=O)N1CC(F)(F)[C@H](NS(=O)(=O)C2CC2)[C@@H]1Cc1cccc(-c2cccc(F)c2)c1F` [Example 163, N-[(2S,3R)-2-[(2,3′-difluoro[1,1′-biphenyl]-3-yl)methyl]-4,4-difluoro-1-(2-methylpropanoyl)pyrrolidin-3-yl]cyclopropanesulfonamide] to `CCS(=O)(=O)N[C@@H]1[C@H](Cc2cccc(-c3cccc(F)c3)c2F)N(C(=O)C23CC(C2)C3)CC1(F)F` [Example 93, N-{(2S,3R)-1-(bicyclo[1.1.1]pentane-1-carbonyl)-2-[(2,3′-difluoro[1,1′-biphenyl]-3-yl)methyl]-4,4-difluoropyrrolidin-3-yl}ethanesulfonamide], the “OX2R agonist activity (3 μM, %)” value falls from 105% to 98%.

Going from `CCS(=O)(=O)N[C@H]1[C@@H](F)CN(C(=O)C(C)(C)O)[C@H]1Cc1cccc(-c2cccc(Cl)c2F)c1F` [Example 347, N-[(2S,3R,4S)-2-[(3′-chloro-2,2′-difluoro[1,1′-biphenyl]-3-yl)methyl]-4-fluoro-1-(2-hydroxy-2-methylpropanoyl)pyrrolidin-3-yl]ethanesulfonamide] to `CCS(=O)(=O)N[C@@H]1[C@H](Cc2cccc(-c3cc(F)c(F)cc3F)c2F)N(C(=O)C2CCO2)CC1(F)F` (stereo partly drawn) [Example 477, N-{(2S,3R)-4,4-difluoro-1-(oxetane-2-carbonyl)-2-[(2,2′,4′,5′-tetrafluoro[1,1′-biphenyl]-3-yl)methyl]pyrrolidin-3-yl}ethanesulfonamide], the “OX2R agonist activity (3 μM, %)” value falls from 102% to 96%.
